Experiment [1] has as its system uptake of noradrenaline. Kind of experiment: Effect on the uptake of noradrenaline in vivo (protection from 6-OHDA). More on the design: species or system rat. As to the method: The point of reference for measuring the inhibiting effect on the uptake of noradrenaline was the protection from the effect of 6-hydroxydopamine (6-OHDA), which was administered intraventricularly. Rats were applied intraventricularly 250 μg of 6-OHDA in the volume of 20 μl of 0,9% solution of […] and 0,1% solution of ascorbic acid. […] The animals were decapitated 7 days after and the level of noradrenaline in the whole brain was measured by the division on the Sephadex G-10 column and fluorimetric assay following oxidation.

Experiment [2] deals with beta-adrenergic receptor. Kind of experiment: Influence of chronic administration on concentration of beta-adrenergic cerebral receptors in vivo (3H-dihydroalprenolol bonding to cerebral cortex membranes). The conditions noted are these: 10 mg/kg chronic administration, six weeks. The arrangement: species or system rat. Here is the method:
Rats were administered the examined preparation in the form of intraperitoneally injection and the dosage of 200 mg/kg twice daily for six weeks. In the same empirical system IMI was examined in the dosage of 10 mg/kg. The animals were killed 24 hours after the last injection and their cerebral cortexes were skeletonized.
The population of the beta-adrenergic receptor was characterised by the examination of the parameters of the ^3 H-dihydroalprenolol (^3 H-DHA) bonding to the membranes (fractiom P2) of the cerebral cortex. The tissue was homogenised in 20 volumes of the 50 mM buffer TRIS-HCl, pH 7,6 in the Polytron disintegrator (position 4,155) and centrifuged at 1000 g for 10 minutes. The supernatant was decanted and again centrifuged at 25000 for 20 minutes. The operations were conducted in the temperature of 0°-4° C. The precipitate, after the second centrifugation, decanting and removing the supernatant, was kept in the temperature of -18° C. until the time of incubation (no longer than 48 hours). The final fraction P2 was obtained by the subsequent process of the sediment homogenisation in such a volume of 50 mM buffer TRIS-HCl, pH 7,6, that the final concentration of protein amounted to 1,5 mg/ml.
The incubation mixture, containing 450 μl of the fraction P2 suspension, 50 μl of the ^3 H-DHA solution (6 different solutions; the final concentrations in the mixture […]) and 50 μl of buffer or propranolol solution (the final concentration in the sample […]) was incubated for 30 minutes in the temperature of 25° C. The incubation was finished by filtrating the suspension through filters made of glass fibres. The filters were twice rinsed with 5 ml of cold (0° C.) buffer TRIS-HCl, pH 7,6, and placed in scintillation minivessels, to which Bray's liquid was added. The radioactivity was measured by the Packard scintillation counter, model B329 with the efficiency of 36-37%.
The specific bonding was defined as the radioactivity difference between the samples incubated in the absence of propranolol (complete bonding) and in the presence of 10 μM of propranolol (blank). The data from the counter […] were recalculated individually into the decay frequence […], calculating it from the individual efficiency of each sample, received from the relation of impulses in the canals A and B. Bmax value and the constant of dissociation KD was calculated from the Scatchard diagrams, which were rectilinear.

The test system of experiment [3] is reserpine pretreated mice. Kind of experiment: Intensification of L-Dopa effects in reserpine pretreated mice. The experiment is classed as in vivo, mouse. The conditions noted are these: 8 mg/kg + L-Dopa 300 mg/kg after reserpine. Here is the method: 2) The intensification of L-Dopa effects in reserpine pretreated mice.
The examined preparation was administered to mice p.o. in the dosages of 40 and 200 mg/kg 17 hours after reserpine in the dosage of 2,5 mg/kg had been administered intraperitoneally. After one hour L-dopa was injected in the dosage of 300 mg/kg. The intensification of L-dopa anti-reserpine action was evaluated according to the following parameters of the animals behaviour: mobility, irritability, ptosis and body temperature. According to the same empirical system IMI was examined in the dosages of 8 and 40 mg/kg.

The subject of experiment [4] is mice premedicated with pargyline. Kind of experiment: Intensification of L-dopa effects in mice premedicated with pargyline. Particulars: L-dopa 200 mg/kg i.p. after pargyline, control 1-2. The experiment is classed as in vivo, mouse. As to the method: 3) The intensification of L-dopa effects in mice premedicated with pargyline.
Three hours after the oral administration of pargyline in the dosage of 40 mg/kg, there was applied orally either the examined preparation or IMI, followed after one hour by L-dopa administered intraperitoneally in the dosage of 200 mg/kg. The behaviour of the mice was evaluated according to the following 5-level score:
1 - piloerection, Straub's tail, exophtalmos of eyes, minute salivating, irritability.
2 - as above + translocations, single jumps.
3 - as above + bigger incitement of mobility, frequent jumps, climbing, single squeaks.
4 - as above + great incitement of mobility, aggresion, fights.
5 - as above + maximum incitement of mobility and aggresion

The test system of experiment [5] is rats behaviour. Kind of experiment: Influence on the rats behaviour in "despair test" (Porsolt), immobility period. The experiment is classed as in vivo, rat. Particulars: 20 mg/kg p.o., twice. Here is the method:
1) The influence on the rats behaviour in "despair test".
The rats were placed separately in upright, metallic cylindrical containers, 60 cm high and 18 cm in diameter, containing 15 centimeters of water, at a temperature of 25° C. […] After 24 hours the rats were dived in water again and for 5 minutes the complete immobility period was measured. The examined preparation (containing 5-morpholinomethyl-3-(4-chlorobenzylideneamine)-2-oxazolidinone hydrochloride) or imipramine (IMI) was administered per os twice: at 24 hours and one hour before the beginning of the observation.

The test system of experiment [6] is mice in the conditions of hypoxia. Kind of experiment: Effect on the time of survival in the conditions of hypoxia. The experiment is classed as in vivo, mouse. Particulars: surviving/complete number. As to the method: The examined preparation was applied i.o. in the dosages 5, 10, 50, 75, 100 mg/kg 60 minutes before the beginning of the experiment. The experiment lasted until 0-3 animals survived in the control group. Subsequently oxygen was let in and finally normal air. The number of animals which survived in the control group was compared to the number of animals in the group administered the examined preparation. The number of surviving mice is presented in relation to the complete number of examined mice.

Experiment [7] has as its system uptake of serotonin. Kind of experiment: Effect on the uptake of serotonin in vivo (protection from p-chloramphetamine).
Setting [8] is: 100 mg/kg, controls: Examined 9/60 (p <0, 01), Piracetam 7/40 (n.d.), Pyritinol 8/60 (p <0, 01).

Experimental findings from patent publication US5643907A, “Pharmaceutical composition containing 5-morpholinomethyl-3-(4-chlorobenzylideneamine)-2-oxazolidinone and its use for the treatment of CNS disorders” (priority 1993, dated 1997) are described below.

For the compound `NCCc1cc(O)c(O)cc1O` [6-OHDA, 6-hydroxydopamine, reference compound], in experiment [1] (6-OHDA administered intraventricularly), the “decline of the noradrenalin content in the cerebrum” value is reported as “over 50%”. In addition, the “noradrenaline, % in relation to the group after chemosympathectomy” value in experiment [1] (6-OHDA alone (reference group), control 216) was 100%.

Consider `CN(C)CCCN1c2ccccc2CCc2ccccc21` [IMI, imipramine, reference compound], for which, in experiment [2], the “Bmax, % of control” value came out at 60% and the “KD, % of control” value turned out to be 129%. In experiment [3], the “Temper. 60' (body temperature)” value is reported as 34,3. In experiment [4] (4 mg/kg p.o.), the “Reaction of mice according to score” value turned out to be 4. The “Reaction of mice according to score” value in experiment [4] (40 mg/kg p.o.) is reported as 3-4. In addition, in experiment [1] (20 mg/kg before 6-OHDA), the “noradrenaline, % in relation to the group after chemosympathectomy” value worked out at 188%. Further, the “Concentration of noradrenaline in the brain X ± SEM” value in experiment [1] (20 mg/kg before 6-OHDA, control 205 ± 10, 5) is on record as 179 ± 113, 5 mg/kg tissue. The “The immobility period, % of control” value in experiment [5] worked out at 88%.

For `NC(=O)CN1CCCC1=O` [Piracetam, piracetam, reference compound], the “The number of mice surviving in the conditions of hypoxia” value in experiment [6] (setting [8]) is 6/40; in experiment [6] (300 mg/kg, control 6/60, p <0, 05), 18/60.

For the compound `Cc1ncc(CSSCc2cnc(C)c(O)c2CO)c(CO)c1O` [Pyritinol, pyritinol, reference compound], the “The number of mice surviving in the conditions of hypoxia” value in experiment [6] (setting [8]) was 30/60.

Regarding `CC(N)Cc1ccc(Cl)cc1` (stereo not drawn) [p-CA, p-chloramphetamine, reference compound], the “serotonin, % in relation to the group after p-chloramphetamine” value in experiment [7] (p-CA alone (reference group), control 169) amounted to 100%. Besides, in experiment [7] (p-chloramphetamine alone), the “decline of the cerebral serotonine concentration” value came out at 40%.
